Experimental data taken from PMC10296238, “A Magnetic-Bead-Based Immunoassay with a Newly Developed Monoclonal Antibody for Rapid and Highly Sensitive Detection of Forchlorfenuron” (Biosensors, 2023).
In brackets after ≈: the same amount, converted by molar mass.

Key:
anti-CPPU mAb 14G1–HRP [1] = test: direct competitive magnetic-bead (MB)-based assay with mAb 14G1–HRP; assay type: binding, mouse; details: for MB-Based Assay CR: CR = IC50 of CPPU/IC50 of analyte × 100%
Method: A direct competitive MB-based assay was developed as follows. First, the 96-well microtiter plate was pre-sealed with 5% skim milk at 37 °C for 1 h. After washing with PBST, MB–CPPU–BSA (10 μg/μL, 10 μL per well) was added to the 96-well plate. Subsequently, 50 μL of serially diluted CPPU standards and 50 μL of diluted mAb–HRP (1:3200) were mixed into the wells. The plate was shaken well and incubated at 37 °C for 20 min and then placed on a magnetic base to precipitate the MB. Then, the supernatant was discarded, and the plate was washed three times with PBST. After washing, TMB substrate (100 μL per well) was added and incubated for 15 min at 37 °C. The reaction was stopped with 2 M H2SO4, and the absorbance was measured at a wavelength of 450 nm.
The reaction parameters greatly influence assay sensitivity. Therefore, the experimental parameters including concentrations of MB–CPPU–BSA and mAb–HRP, ionic strength, pH value, and organic solvent content in buffer were investigated to improve the sensitivity of the MB-based assay. After optimization, the standard curve for the MB-based assay was generated by plotting the B/B0 (B and B0 were defined as the OD450 in the presence and absence of CPPU, respectively) against the logarithm of CPPU concentration. The 50% inhibitory concentration value (IC50) calculated from the curves was used to evaluate assay sensitivity.
(§1) The cross-reactivities (CRs) of the developed MB-based assay and icELISA with compounds structurally related to CPPU were used to evaluate the selectivity of the assays. The CR value of each compound was calculated as follows: CR (%) = (IC50 of CPPU/IC50 of analyte) × 100%.
To obtain better analytical performance of the MB-based assay, the reaction conditions were investigated. First of all, the working concentrations of MB–CPPU–BSA and mAb 14G1–HRP were determined by checkerboard titration as 0.1 mg/mL and 1:6400 dilution, respectively (Table S1). Then, the influence of other parameters on the assay was also optimized, in which the IC50 value was used as the main criterion. The effects of different ionic strengths and different pH values of the PBS solution on antigen–antibody binding in the MB-based assay were evaluated (Figure S4a,b). […] The optimal methanol concentration was selected to be 5% for the lower IC50. To shorten the detection duration, the incubation time for the competitive reaction between MB–CPPU–BSA and free-CPPU for binding to mAb–HRP tracer was optimized in sequence. […] Shorter incubation times may result in insufficient antigen–antibody binding, while longer incubation times not only further increased the maximum intensity but also led to higher background signals from non-specific binding. Therefore, incubation was stopped after 20 min, and beads were washed to remove unbound antibody.

anti-CPPU mAb 14G1 = test: conventional indirect competitive ELISA (icELISA) based on mAb 14G1; assay type: binding, mouse; details: for icELISA CR: CR = IC50 of CPPU/IC50 of analyte × 100%
Method: A conventional icELISA was developed for CPPU detection as follows: 0.5 μg/mL CPPU–BSA was dropped into the 96-well microplate (100 μL/well) and incubated overnight at 4 °C. The plates were blocked at 37 °C with 5% skim milk in PBST (PBS containing 0.05% Tween 20) for 1 h. After washing the plate with PBST three times, 50 μL of mAb 14G1 and 50 μL of sequentially diluted CPPU standard solution were added. The plate was incubated for 1 h at 37 °C, washed three times, and 100 μL/well of goat anti-mouse lgG-HRP solution was added for another 1 h of incubation. After washing six times, 100 μL/well of TMB substrate was added to the plate and reacted for 15 min. Finally, 2 M H2SO4 (50 μL/well) was added into the plate to stop the reaction, and the OD450 value was read with a microplate reader.
as §1
The experimental conditions of conventional icELISA were optimized. The evaluation criteria were the 50% inhibition concentration (IC50; representing the sensitivity) and maximum absorbance (ODmax) of the negative control. The working concentrations of the CPPU–BSA conjugate and mAb 14G1 were primarily optimized by a checkerboard titration. The concentration of CPPU–BSA coated in the plate was diluted from 2.0 μg/mL to 0.25 μg /mL, and anti-CPPU mAb 14G1 was diluted in a series of two-fold dilutions from 1:2000. […] After optimization, the concentrations of CPPU–BSA and mAb 14G1 were 0.5 μg/mL and 0.016 μg/mL for icELISA (Figure S2a). Then, the process parameters of icELISA were optimized through single-factor experiments. The influence of blocking reagents commonly used in ELISA systems, OVA, skim milk, and BSA, were evaluated and compared for their effectiveness in reducing nonspecific binding. Finally, 5% skim milk was selected, which gave a minimum IC50 value (Figure S2b). CPPU is a lipophilic, small organic compound, and methanol has been reported to be a more acceptable co-solvent for CPPU during the immunochemical reaction. The effect of methanol concentration on immunoassay performance was assessed. […] The ionic strength of 136 mM, which provided the lowest IC50 value, was selected. The pH value is one of the key factors influencing the characteristics of the assay. From Figure S2e, the value of pH 7.4 was selected as the optimum for the assay based on the favorable IC50 value. Under the optimal assay conditions, an indirect competitive ELISA standard curve was established (Figure 3). […] Moreover, the assay has a linear range (IC20–IC80) of 0.005–0.231 ng/mL.

zebrafish = details: cited from earlier work
mAb = details: cited from earlier work
anti-CPPU mAb 14G1–HRP [2] = test: direct competitive magnetic-bead (MB)-based assay with mAb 14G1–HRP; assay type: binding, mouse
mAb (s5#34) = details: cited from earlier work
mAb, P6#42 = details: cited from earlier work
rats = details: cited from earlier work
mAb against CPPU = details: cited from earlier work
pAb = test system: pAb; set-up: method as in earlier work; details: cited from earlier work

## Cc1ccc(NC(=O)N(C)C)cc1Cl [Chlorotoluron]
anti-CPPU mAb 14G1–HRP [1]
  MB-Based Assay CR: <0.6%
anti-CPPU mAb 14G1–HRP [1]; optimized conditions
  MB-Based Assay IC50: >1.0 ng/mL
anti-CPPU mAb 14G1
  icELISA CR: <1.0%
anti-CPPU mAb 14G1; optimal assay conditions
  icELISA IC50: >2.5 ng/mL

## Clc1ccccc1-c1nnc(-c2ccccc2Cl)nn1 [Clofentezine]
anti-CPPU mAb 14G1–HRP [1]
  MB-Based Assay CR: <0.6%
anti-CPPU mAb 14G1–HRP [1]; optimized conditions
  MB-Based Assay IC50: >1.0 ng/mL
anti-CPPU mAb 14G1
  icELISA CR: <1.0%
anti-CPPU mAb 14G1; optimal assay conditions
  icELISA IC50: >2.5 ng/mL

## CN(C)C(=O)Nc1ccc(Cl)c(Cl)c1 [Diuron]
anti-CPPU mAb 14G1–HRP [1]
  MB-Based Assay CR: <0.6%
anti-CPPU mAb 14G1–HRP [1]; optimized conditions
  MB-Based Assay IC50: >1.0 ng/mL
anti-CPPU mAb 14G1
  icELISA CR: <1.0%
anti-CPPU mAb 14G1; optimal assay conditions
  icELISA IC50: >2.5 ng/mL

## O=C(Nc1ccccc1)Nc1ccnc(Cl)c1 [Forchlorfenuron (CPPU), Forchlorfenuron]
zebrafish
  toxic effects in zebrafish: cardiac morphology deformation, cardiac contractile dysfunction, and erythrocyte reduction
mAb
  icELISA (mAb) LOD: 0.013 ng/mL
  icELISA (mAb) linear range: 0.022 to 0.156 ng/mL
anti-CPPU mAb 14G1–HRP [2]; mAb-HRP 1:400, MB-CPPU-BSA 0.0125 μg/μL
  IC50, MB-based assay optimization: 0.0315 ng/mL (≈ 0.127 nM)
anti-CPPU mAb 14G1–HRP [2]; mAb-HRP 1:800, MB-CPPU-BSA 0.025 μg/μL
  IC50, MB-based assay optimization: 0.0147 ng/mL (≈ 0.0593 nM)
anti-CPPU mAb 14G1–HRP [2]; mAb-HRP 1:1600, MB-CPPU-BSA 0.05 μg/μL
  IC50, MB-based assay optimization: 0.0139 ng/mL (≈ 0.0561 nM)
anti-CPPU mAb 14G1–HRP [2]; mAb-HRP 1:3200, MB-CPPU-BSA 0.10 μg/μL
  IC50, MB-based assay optimization: 0.0132 ng/mL (≈ 0.0533 nM)
anti-CPPU mAb 14G1–HRP [2]; mAb-HRP 1:6400, MB-CPPU-BSA 0.20 μg/μL
  IC50, MB-based assay optimization: 0.0140 ng/mL (≈ 0.0565 nM)
anti-CPPU mAb 14G1–HRP [1]
  MB-Based Assay CR: 100%
anti-CPPU mAb 14G1–HRP [1]; grape, considering dilution factor of the sample (100-fold)
  estimated LOD in grape, MB-based assay: 0.0168 µg/kg
anti-CPPU mAb 14G1–HRP [1]; kiwifruit, considering dilution factor of the sample (100-fold)
  estimated LOD in kiwifruit, MB-based assay: 0.0191 µg/kg
anti-CPPU mAb 14G1–HRP [1]; optimized conditions
  MB-Based Assay IC50: 0.0061 ng/mL
  MB-based assay LOD: 0.0004 ng/mL
  MB-based assay linear detection range (IC20–IC80): 0.0016 to 0.0259 ng/mL
mAb (s5#34)
  dcELISA (mAb) LOD: 0.01 ng/mL
mAb (s5#34); in buffer
  dcELISA IC50: 0.063 ng/mL
mAb, P6#42
  LFIA IC50: 0.286 ng/mL
  LFIA LOD: 0.045 ng/mL
  LFIA linear range: 0.089 to 0.916 ng/mL
rats
  toxic effects in rats: potential adverse effects on the ovaries and on the production of steroid hormones
mAb against CPPU
  icELISA IC50: 1.04 ng/mL
  icELISA LOD: 0.16 ng/mL
  icELISA linear range: 0.31 to 3.43 ng/mL
anti-CPPU mAb 14G1; 5% methanol, Figure S2c
  icELISA IC50 during optimization: 0.0372 ng/mL
anti-CPPU mAb 14G1
  icELISA CR: 100%
anti-CPPU mAb 14G1; optimal assay conditions
  icELISA IC50: 0.0253 ng/mL
  icELISA limit of detection (LOD, IC10): 0.002 ng/mL
  icELISA linear range (IC20–IC80): 0.005 to 0.231 ng/mL
pAb
  dcELISA (pAb) IC50: 0.077 ng/mL
  dcELISA (pAb) LOD: 0.012 ng/mL
  dcELISA (pAb) linear range: 0.025-0.276 ng/mL

## CON(C)C(=O)Nc1ccc(Cl)c(Cl)c1 [Linuron]
anti-CPPU mAb 14G1–HRP [1]
  MB-Based Assay CR: <0.6%
anti-CPPU mAb 14G1–HRP [1]; optimized conditions
  MB-Based Assay IC50: >1.0 ng/mL
anti-CPPU mAb 14G1
  icELISA CR: <1.0%
anti-CPPU mAb 14G1; optimal assay conditions
  icELISA IC50: >2.5 ng/mL

## O=C(Nc1ccccc1)Nc1cnns1 [Thidiazuron]
anti-CPPU mAb 14G1–HRP [1]
  MB-Based Assay CR: <0.6%
anti-CPPU mAb 14G1–HRP [1]; listed as thidiazuron
  MB-Based Assay CR: negligible cross-reaction
anti-CPPU mAb 14G1–HRP [1]; optimized conditions
  MB-Based Assay IC50: >1.0 ng/mL
mAb (s5#34); mAb s5#34
  dcELISA cross-reactivity (CR): 71%
anti-CPPU mAb 14G1
  icELISA CR: <1.0%
anti-CPPU mAb 14G1; listed as thidiazuron
  icELISA CR: negligible cross-reaction
anti-CPPU mAb 14G1; optimal assay conditions
  icELISA IC50: >2.5 ng/mL
